# Experimental data from PMC11396667, “Design, Synthesis, and Anticancer and Antibacterial Activities of Quinoline-5-Sulfonamides” (Molecules, 2024).
# How the values were obtained:
# [1] = tested on: C-32, A549, MDA-MB-231 and HFF-1 cells; assay: Crystal violet, WST-1 and LDH assays of 3c; assay type: cell-based; conditions: 3c in medium above 0.3 µM, 72 h; particularly in A549 and MDA-MB-231 cells
# Protocol: The effect of the compound on cell viability was determined using, in addition to the WST-1 assay, the crystal violet assay and the LDH (lactate dehydrogenase) assay. Furthermore, a wound healing test (indicator of cell proliferation and migration capacity) and assessment of gene expression (in the transcription phase) of BCL-2, BAX, TP53, P21, and H3 were performed.
# An increase in the number of dead cells is shown by the absorbance line in the LDH test.
# Cells were seeded in 96-well plates at 5000/well in 100 μL of medium. After 24 h of incubation, the medium was replaced with a new one with the addition of the test substance. […]
# Crystal violet test: The crystal violet (Sigma-Aldrich, Darmstadt, Germany) test determines the relative number of cells based on the amount of dye bound to the DNA of cells in the culture. The absorbance measurement was performed at a wavelength of λ = 540 nm (reference wavelength λ = 690 nm).
# WST-1 test: The WST-1 test (Roche Diagnostics, Mannheim, Germany) allows one to determine the relative number of cells in cultures. Absorbance is directly proportional to the number of cells and their metabolic activity. The absorbance measurement is performed at λ = 450 nm (reference wave 600 nm). […]
# [2] = tested on: C-32, A549, MDA-MB-231 and HFF-1 cells; assay: Wound healing assay; assay type: cell-based, human; conditions: 3 µM, 72 h after scratching, all cells
# Protocol: Photographs of the cell culture (control and culture exposed to compound 3c at a concentration of 3 µM) were taken after scraping the bottom of the vessel with a pipette tip and then after 72 h of incubation (Figure 2). […] In control cultures, the cell-free surface of the vessel (scraped with a pipette tip) becomes overgrown with cells, while in cultures supplemented with medium containing 3 µM of compound 3c, empty spots are visible. In the case of A549 and MDA-MB-231 cells, entire cell-free regions are clearly visible.
# The wound healing assay is a standard in vitro technique for examining collective cell migration in two dimensions. The test involves scratching the bottom of a vessel (wells of a culture plate) with a pipette tip and observing over time how quickly cells move to occupy a free surface under specific culture conditions. In the presented work, the observation was carried out after 72 h of culture. At t = 0, a scratch was made, the medium was replaced with fresh one with the addition of the test compound, and then the cultures were incubated for 72 h. The observation was carried out using an OLYMPUS IX 50 microscope (Tokyo, Japan) with a KERN camera (KERN & SOHN GmbH, Balingen, Germany), and an image analysis system with KERN software (BalanceConnection SCD-4.0 Pro) was used to analyze the observed changes.
# [3] = tested on: H3, BCL-2, BAX, P21, and P53 genes in C-32, A549, MDA-MB-231, and HFF-1 cells; assay: Transcriptional activity by RT-QPCR; assay type: cell-based, human; conditions: 36 µM in medium, 24 h
# Protocol: The study investigated the effect of compound 3c on the transcriptional activity of genes encoding a proliferation marker (histone H3), cell cycle regulators (P53 and P21), and genes encoding proteins involved in the mitochondrial apoptosis pathway (BCL-2 and BAX) in C-32, A549, MDA-MB-231, and HFF-1 cells. Cultures were exposed to 3c at a concentration of 36 µM in medium for 24 h.
# The transcriptional activity of the following genes was assessed: H3 (a gene encoding histone H3, a proliferation marker), BCL-2 and BAX (genes encoding BCL-2 and BAX proteins, respectively; both are mitochondrial proteins associated with apoptosis), and P21 and P53 (cell cycle regulators). Activity was assessed by RT-QPCR using the CFX96 Touch Real-Time PCR Detection System (BIO-RAD Hercules, CA, USA) and a SensiFAST^TM SYBR^R No-ROX One-Step Kit (Meridian Bioscience, Memphis, TN, USA). Cultured cells were exposed (for 24 h) to the tested compounds (0.5 µg/mL). RNA was extracted using Quick-RNA™ MiniPrep kit columns (Zymo Research, Irvine, CA, USA). The extracted RNA was assessed qualitatively and quantitatively. The integrity of total RNA was checked by electrophoresis (1.2% agarose gel, EtBr), and the amount and purity of total RNA in the extracts was determined spectrophotometrically (HP8452A apparatus, Hewlett Packard, Waldbronn, Germany).
smiles,measurement,setting,value
"C#CCN(C)S(=O)(=O)c1ccc(O)c2ncccc12 [3c, 8-Hydroxy-N-methyl-N-(prop-2-yn-1-yl)quinoline-5-sulfonamide]",cell number in cultures (cell viability and cytotoxicity assays),[1],significant decrease in cell number
same,proliferative activity and migration capacity (wound healing),[2],reduction in proliferative activity and migration capacity
same,BCL-2/BAX ratio (ratio of gene copy numbers),[3],in favor of BAX
same,transcriptional activity of P21,[3],increase in the transcriptional activity
same,transcriptional activity of P53,[3],increase in the transcriptional activity
same,H3 expression (proliferation marker),[3]; all the cultures,reduction in H3 expression
